“Also recorded” adds a separate entry of the source.
Test system: PARP2
Test: live-cell PARP-2 trapping assay (GFP-PARP2 at laser micro-irradiation sites)
Format: cell-based, human
Details: U2OS cells transfected with GFP-PARP2; veliparib 10 μM, talazoparib 100 nM; images 1 and 15 minutes after irradiation
Protocol: U2OS cells were seeded onto 4-well Nunc Lab-Tek chambers (Thermo Fisher Scientific) in normal DMEM. Cells were cultured over night at 37° C. and transfected with a GFP-tagged PARP2 plasmid using Lipofectamine. 24 h after transfection, the cells were imaged using the Zeiss AxioObserver Z1 confocal spinning-disk microscope equipped with a sCMOS ORCA Flash 4.0 camera (Hamamatsu). Live-cell imaging experiments were performed with C-Apo 63× water immersion objective lens. During this time, the cells were maintained in Leibovitz's L-15 media (Gibco), supplemented with 10% FBS, at 37° C. in the absence of CO2. […] DNA damage was induced along a line of 88 pixels that is exposed for 400 msec with 20% laser power of a 355 nm laser operated through a single-point scanning head (UGA-42 firefly, Rapp OptoElectronics).
The accumulation of fluorophore-tagged proteins at laser micro-irradiation sites was followed for 15-30 minutes. […] The accumulation of fluorophore-tagged proteins at micro-irradiation sites was quantified using a custom-made macro in Fiji/ImageJ. The damage region of interest was selected, the mean fluorescent intensity of the nucleus was determined, and the background signal was subtracted. The recruitment was calculated via the following formula: (damage region (t)−background signal (t))/(nucleus intensity (t)−background (t))

| Structure (SMILES) | recruitment / retention of GFP-PARP2 at laser micro-irradiation damage sites |
| --- | --- |
| Cn1ncnc1[C@H]1c2n[nH]c(=O)c3cc(F)cc(c23)N[C@@H]1c1ccc(F)cc1 [talazoparib] | enhanced retention of GFP-tagged PARP2 at induced DNA lesions; also recorded: enhanced retention of PARP2 at induced damage sites |
| C[C@]1(c2nc3c(C(N)=O)cccc3[nH]2)CCCN1 [veliparib] | overall less PARP2 recruitment to the DNA lesions; also recorded: less recruitment of PARP2 to the damage site |

— patent US20260216344A1, “ALC1 Inhibitors and Synergy with PARPi” (Eisbach Bio GmbH, priority 2020, published 2026)
